SMILES strings stand for the structures.

Usually melting point stands for the temperature, or range, at which the solid turns liquid. Compound `CC(C)c1ccc(Cn2nnnc2-c2ccc(OC(=O)C(C)(C)C)cc2)cc1` showed a melting point of 111 to 113 °C.

In turn, `CC1C(=O)NC(=O)N(Cc2ccccc2)C1=O` (stereo not given) gave a melting point of 128 to 129 °C.

With `C#CCOC(=O)c1cc(-n2c(=O)cc(C)n(C)c2=O)c(F)cc1C#N`, the melting point lay within 174 to 177 °C.

The compound `Nc1nccc(-c2ccc(OCC(O)CN3CCN(c4cccc(Cl)c4)CC3)cc2)n1` (stereo not given) yielded a melting point of 197 to 198 °C.

For `COc1c(-c2ccc(S(C)(=O)=O)cc2)cnn(-c2ccc(F)c(F)c2)c1=O`, the melting point lay in the range of 113 to 115 °C.

Regarding `O=S1(=O)c2cccc3cccc(c23)N1CCCCl`, the melting point is 78 °C.

As for `Cc1cc2ncc(C#N)c(Cl)c2s1`, the melting point was 163 to 164 °C.

Regarding `CSC[C@H](C)NC(=O)c1c(I)cccc1C(=O)Nc1ccc(Cc2cc(C(F)(F)F)cc(C(F)(F)F)c2)cc1C`, the melting point was in the range of 85 to 94 °C.

Consider `O=C(O)c1snc(-c2cccc(Cl)c2)c1C(=O)O`, for which the melting point fell in the range of 185 to 186 °C.

The compound `CN1C(=O)C(C(=O)Nc2ccc(Cl)cc2Oc2c(Cl)cccc2Cl)C(=O)N(C)C1=S` gave a melting point of 254 to 257 °C.

In the case of `CCCCOc1ccc(Cc2nn(-c3ccccc3Cl)c(=O)o2)cc1`, the melting point came out at 63 °C.

As to `O=C1CC2CSc3sc(Br)cc3C2=NN1c1ccc(Cl)cc1` (stereo not given), the melting point is 169 to 170 °C.

Turning to `CCOC(=O)c1c2ccc(Cl)cc2c(-c2ccccc2)n1CCCOS(C)(=O)=O`, the melting point lay within 91 to 92 °C.

The compound `O=[N+]([O-])c1cc(OC2CCCC2)c(Cl)cc1F` had a melting point of 58 to 62.6 °C.

The compound `O=C(O)C1=Cc2cc(Cl)cc(I)c2OC1C(F)(F)F` (stereo not given) showed a melting point of 220 to 223 °C.

In turn, `Clc1ccc(N2C3CCC2CN(Cc2ccccc2)C3)cc1` displayed a melting point of 115 to 117 °C.

The compound `COCC(=O)c1c(Cl)ccc(F)c1Cl` returned a melting point of 36.7 to 39.4 °C.

Consider `CCOC(=O)c1cnc2ccc(-c3ccc(Cl)cc3)cn12`, for which the melting point came out at 130 °C.

Compound `COC1(c2ccc(N(C)C)cc2)OC(=O)c2ccccc21` (stereo not given) yielded a melting point of 112 to 114 °C.

Compound `CCOC(=O)c1nnnn1Cc1ccccc1[N+](=O)[O-]` yielded a melting point of 90 to 92 °C.

`CC(C)N(CCCCOCC(=O)O)c1nnc(-c2ccccc2)c(-c2ccccc2)n1` displayed a melting point of 128 to 130 °C.

The compound `COc1ncc(C=O)cc1Br` yielded a melting point of 94 to 95 °C.

Compound `OCCCc1cc(-c2ccc(Cl)cc2)n(-c2c(Cl)cncc2Cl)n1` returned a melting point of 108 to 110 °C.

In the case of `C=CCC1(C(=O)NCc2ccccn2)c2ccccc2-c2ccccc21`, the melting point fell in the range of 110 to 111 °C.

With `COC(=O)c1cc(N2CCOCC2)nc(Cl)n1`, the melting point lay in the range of 135 to 138 °C.

With `O=C1Nc2ccccc2N(C(=O)N2CCCC(CCNCC3CCCC3)C2)c2ncccc21` (stereo not given), the melting point is 148 to 150 °C.

The compound `O=[N+]([O-])c1cc2c(Nc3cc(Cl)c(Cl)cc3F)ncnc2cc1OCCOCCO` yielded a melting point of 149 °C.

The compound `CCN1CCCC1Cc1cccc(NC(N)=O)c1` (stereo not given) registered a melting point of 114 to 116 °C.

As for `CCOC(=O)CN[C@H]1CSc2ccccc2N(CC(=O)O)C1=O`, the melting point fell in the range of 223 to 226 °C.

Take `COc1cc2c(cc1OC)C(=O)C(=Cc1cc(Cl)cc(Cl)c1)CC2`: the melting point is 200 to 201 °C.

On to `CCCCCC(O)(CC#N)c1ccc(OC)cc1` (stereo not given), for which the melting point lay in the range of 45 to 47 °C.

Turning to `CCCS(=O)(=O)c1ccccc1S(=O)(=O)Cl`, the melting point was in the range of 74 to 77 °C.

`COC(=O)c1nccnc1N(C)c1ccc(Cl)cc1[N+](=O)[O-]` gave a melting point of 111 to 112 °C.

In turn, `FC(F)(F)c1nc(N=C(Cl)c2cccc(Cl)c2)sc1Cl` returned a melting point of 89 to 90 °C.

`CN1C(=O)SC(Cc2ccc(N)cc2)C1=O` (stereo not given) registered a melting point of 91 to 92 °C.

Compound `N#CCCNC(=O)c1cccc(-c2cccc3oc(Cc4cccc(C(F)(F)F)c4)cc23)c1` gave a melting point of 107 to 108 °C.

In the case of `Cc1nccn1Cc1c(C(=O)O)nc2c(=O)[nH]c3cc(C(F)(F)F)ccc3n12`, the melting point was above 250 °C.

On to `O=C(NCCCCOc1ccc(-n2ccnc2)cc1)Nc1ccc(Br)cc1`, for which the melting point lay in the range of 157 to 159 °C.

Consider `COc1ccc(C=CC=Cc2ccccc2)cc1`, for which the melting point was in the range of 160 to 162 °C.

Take `N#Cc1ccc2nc(C(=O)NCc3cccc(OCCSc4nc[nH]n4)c3)[nH]c(=O)c2c1`: the melting point fell in the range of 195 to 198 °C.

With `COc1ccc(C(=O)Nc2ccccc2)cc1NCc1ccc(OC(C)=O)cc1`, the melting point fell in the range of 193 to 195 °C.

Compound `CSc1cc2c([nH]1)CC(C)(C)CC2=O` returned a melting point of 195 to 196 °C.

On to `COc1ccc(C(=O)O)c2c1OC(C)(C)C2`, for which the melting point lay within 147 to 149 °C.

As for `O=C(Nc1ccccc1)c1ccc(F)c2c1CC(N(CCCc1c[nH]c3ccc(F)cc13)C1CCC1)CO2` (stereo not given), the melting point worked out at 136 °C.

The compound `COc1ccc(S(=O)(=O)Nc2ccc(Cl)cc2Cc2c(F)cccc2F)cc1OC` yielded a melting point of 144 °C.

Turning to `CC(C)=NN=C1NCC(=O)N1`, the melting point is 182 to 187 °C.

The compound `CC1(C(O)(C=Cc2ccc(Cl)cc2Cl)Cn2ccnc2)COCOC1` (stereo not given) registered a melting point of 142 to 144 °C.

Take `COc1nc(NC(=O)NS(=O)(=O)c2ccccc2C(=O)OC(C)C)nc(OC)n1`: the melting point was 192 to 195 °C.

With `CN1CC(CCCCN2CCN(c3ccccc3)CC2)OC1=O` (stereo not given), the melting point lay within 85 to 88 °C.

In the case of `O=C(NN1CCCCC1)C1CN(c2ccc(Cl)cc2)C(c2ccc(Cl)cc2Cl)=N1` (stereo not given), the melting point was 113 to 116 °C.

`CCOc1cc2c(cc1OCC)[C@@H]1CCCC[C@@H]1N=C2c1ccc(O)nc1` (racemic) gave a melting point of 211 to 213 °C.

In the case of `COc1ccccc1C(=O)c1ccc(OC)c(Cl)c1Cl`, the melting point fell in the range of 94 to 96 °C.

On to `Nc1n[nH]c2cc(C(=O)C=NO)ccc12`, for which the melting point lay in the range of 199 to 201 °C.

`COc1ccc(C(=O)c2ccc([N+](=O)[O-])c(CO)c2)cc1` gave a melting point of 116 °C.

On to `CC1(C)C(=O)N(c2ccc(C#N)c(C(F)(F)F)c2)C(=O)N1CC1OC1CN1C(=O)N(c2ccc(C#N)c(C(F)(F)F)c2)C(=O)C1(C)C` (stereo not given), for which the melting point fell in the range of 108 to 110 °C.

Turning to `Sc1c(Cl)cc(Cl)c(Cl)c1S`, the melting point lay in the range of 115 to 116 °C.

Compound `Cc1cnc2c(NC(=O)c3ccccc3[N+](=O)[O-])cccc2c1-n1ccnc1` gave a melting point of 199 to 204 °C.

`CCOC(=O)c1c(S(=O)(=O)c2ccccc2)cc(C(F)(F)F)nc1C(F)(F)F` displayed a melting point of 48 to 50 °C.

In turn, `Cc1cccc(C)c1NC(=O)CCCCCc1cccnc1` gave a melting point of 98 to 100 °C.

With `COc1cc(C)c(C(=O)CCCCCCCCCCCCCCCCCO)c(O)c1OC`, the melting point turned out to be 101 °C.

Turning to `Sc1c(Br)cc(Br)c(Br)c1S`, the melting point was 125 to 127 °C.

The compound `COc1cc(NC(=O)CCCCCBr)c2nccc(C)c2c1` displayed a melting point of 111 to 113 °C.

In the case of `Cn1ccnc1Sc1ccc(Nc2c(C#N)cnc3cc(/C=C/CCN4CCCCC4)ccc23)cc1Cl`, the melting point fell in the range of 205 to 210 °C.

Take `CC1=CC(=O)C=C2CCC3C4CCC(=O)C4(C)CCC3C12C` (stereo not given): the melting point lay within 165 to 167 °C.

Consider `Cc1cccc(-c2nc(CCOc3ccc(/C=C/C=O)cc3)c(C)o2)c1`, for which the melting point lay within 110 to 111 °C.

On to `O=C(O)[C@H]1C=C[C@@H](c2ccc([N+](=O)[O-])cc2)n2c(=O)n(CCCl)c(=O)n21` (relative stereo), for which the melting point fell in the range of 192 to 194 °C.

The compound `Oc1ccc(C(c2ccc(O)cc2)c2cccc3ccccc23)cc1` gave a melting point of 109 to 111 °C.

The compound `CC(C)C(=O)N[C@@H](CSC(=O)c1ccccc1)C(=O)NCCSC(=O)C(C)C` returned a melting point of 155 to 157 °C.

`CC(Cc1ccc(F)cc1)(NC(=O)CNC(=O)CN)c1ccc(F)cc1` (stereo not given) gave a melting point of 139 to 140 °C.

`CCNC(=O)N1C(c2ccccc2C(=O)OCC)=NC(=O)C1(C)C(C)C` (stereo not given) displayed a melting point of 85 to 87 °C.

Turning to `CC(C)(c1ccc(-c2nc(Nc3ccc(F)cc3)ncc2C#N)cc1)N1CCCC1`, the melting point amounted to 124 °C.

Take `CS(=O)(=O)ON=C(C#N)C(N)=O`: the melting point was 136 to 142 °C.

`CCOc1cc(=O)n(-c2ccc([N+](=O)[O-])cc2)[nH]1` came in with a melting point of 143 °C.

As for `O=C1COc2cc(F)c(N3N=C4CCCCC4C3=O)cc2N1Cc1ccccn1` (stereo not given), the melting point was 216 to 219 °C.

As for `CN1CC(CCCl)Oc2c(ccc3ccccc23)C1=S` (stereo not given), the melting point was in the range of 167 to 170 °C.

As for `O=C(NCCc1ccccc1)[C@@H]1Cc2ccccc2N1`, the melting point fell in the range of 112 to 116 °C.

For the compound `CCNc1nc2cccc(C(=O)O)c2n1Cc1ccc(-c2ccccc2-c2nnn[nH]2)cc1`, the melting point lay in the range of 240 to 242 °C.

`O=C1Nc2c(ccc3ccccc23)SC1Cc1ccc(Cl)cc1` (stereo not given) displayed a melting point of 185 to 186 °C.

For `O=C(O)c1ccc(OC(F)(F)F)c(OC2CCCC2)c1`, the melting point lay within 116 to 118 °C.

In turn, `COC(=O)c1sc2ccc(OCc3cccnc3)cc2c1Cl` returned a melting point of 126 to 128 °C.

As to `O=C1CC(C(=O)NC(c2ccccc2)c2ccc(Cl)cc2)Oc2ccc(F)cc21` (single isomer, unassigned; (+)), the melting point was determined as 167 °C.

For `Cc1cc(NC(=O)c2cnn(-c3ccc(Cl)cc3)c2C)ccc1N1CCC(N2CCOCC2)CC1`, the melting point lay within 235 to 245 °C.

In the case of `CN(C)C=Cc1cccnc1C#N`, the melting point lay within 71.5 to 72 °C.

For the compound `O=C(NCCCc1cccs1)n1cc(F)c(=O)[nH]c1=O`, the melting point lay within 131 to 133 °C.

In turn, `O=C(O)[C@@H](CCN1C(=O)c2ccccc2C1=O)Oc1c(Br)cc(-c2c(Br)ccc3sc4ccccc4c23)cc1Br` came in with a melting point of 130 to 132 °C.

In turn, `COC(=O)C(CCSC)NC(=O)c1ccc(NC(=O)C2CC(O)CN2C(=O)OC(C)(C)C)cc1-c1ccccc1` (stereo not given) showed a melting point of 121 to 123 °C.

On to `CSc1cc2c(cn1)c(=O)n(C)c1cc(C)nn21`, for which the melting point is above 300 °C.

The compound `O=C(O)/C=C/c1ccc(-c2ccc(O)c(C34CC5CC(CC(C5)C3)C4)c2)c(Cl)c1` displayed a melting point of 257 to 259 °C.

In turn, `O=C1c2ccccc2CCc2cccnc21` displayed a melting point of 118 to 120 °C.

`CS(=O)(=O)c1ccc(C(CC2CCCC2)C(=O)Nc2ccccn2)cc1S(C)(=O)=O` (stereo not given) came in with a melting point of 107 to 110 °C.

Source of the values: a melting point compilation (Tetko et al.; mined from patent text by program, amines drawn as free bases though some values may be those of a salt).
